Laboratory results from patent US7915291B2, “Hepatitis C virus inhibitors” (Bristol-Myers Squibb Company, priority 2002, dated 2011).
Like-named read-outs stand apart in the source and are kept apart here.

Columns and labels:
[1] = biological target: HCV NS3/4A protease complex, BMS strain (UniProt P27958, C1454S/C1711G, species not given/STRAIN_BMS); assay: Recombinant HCV NS3/4A protease complex FRET peptide assay (BMS strain); format: biochemical, HCV genotype 1a
How it was run: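 Percent inhibition taken from the linear-range fluorescence slope relative to uninhibited control, read kinetically for about 15 min at 25° C. Enzyme (2-3 nM, BMS NS3/4A complex, lysine-tailed, Ni-NTA purified) met compound for 1 min before 2 μM FRET depsipeptide substrate started cleavage.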

[2] = tested on: HCV replicon in Huh7 cells; assay: HCV replicon cell-based assay; parameters: species or system HCV strain 1B; conditions: HCV replicon, Huh7 cells, read-out: EC50 range
[3] = NS3/4A BMS strain; read-out: IC50 range

| SMILES | IC50 [1, 3] [µM] | EC50 ([2]; Hepatitis C virus, Huh-7) [µM] | EC50 [2] [µM] | IC50 ([1]; read-out: IC50 range; NS3/4A BMS strain) [µM] |
| --- | --- | --- | --- | --- |
| C=C[C@@H]1C[C@]1(NC(=O)[C@@H]1C[C@@H](Oc2nccc3ccccc23)CN1C(=O)[C@@H](NC(=O)O[C@@H]1C[C@H](C)CC[C@H]1C(C)C)C(C)(C)C)C(=O)NS(=O)(=O)C1CC1 [Compound 128] | < 0.1 | 0.1 to 1 |  |  |
| C=C[C@@H]1C[C@]1(NC(=O)[C@@H]1C[C@@H](Oc2ncc(OC)c3cc(OC)ccc23)CN1C(=O)[C@@H](NC(=O)OC(C)(C)C)C(C)(C)C)C(=O)NS(=O)(=O)C1CC1 [Compound 279] | < 0.1 | < 0.1 |  |  |
| C=C[C@@H]1C[C@]1(NC(=O)[C@@H]1C[C@@H](Oc2nc(-c3ccco3)c(OC)c3ccccc23)CN1C(=O)[C@@H](NC(=O)OC(C)(C)C)C(C)(C)C)C(=O)NS(=O)(=O)C1CC1 [Compound 230, BOCNH-P3(L-t-BuGly)-P2[(4R)-(3-furan-2-yl-4-methoxy -isoquinolin-1-oxo)-S-proline]-P1(1R,2S VinylAcca)-CONHSO2Cyclopropane] | 0.1 to 1 |  | 0.1 to 1 |  |
| C=CC1C[C@]1(NC(=O)[C@@H]1C[C@@H](Oc2nccc3c(SCCC)c(OCC)ccc23)CN1C(=O)[C@@H](NC(=O)OC(C)(C)C)C(C)(C)C)C(=O)NS(=O)(=O)C1CC1 (stereo partly drawn) [Compound 206, BOCNH-P3(L-t-BuGly)-P2[(4R)-(6-ethoxy-5propylthio -isoquinoline-1-oxo)-S-proline]-P1(1R,2S VinylAcca)-CONHSO2Cyclopropane] | < 0.1 | < 0.1 |  |  |
| C=CC1CC1(NC(=O)C1CC(Oc2nc(-c3ccccc3)nc3ccc(OC)cc23)CN1C(=O)[C@@H](NC(=O)OC(C)(C)C)C(C)(C)C)C(=O)NS(=O)(=O)C(C)C (mixture of isomers) [Compound 45] | 0.1 to 1 | 1 to 10 |  |  |
| C=CC1C[C@]1(NC(=O)[C@@H]1C[C@@H](Oc2nc(-c3ccccc3N(C)C)cc3cc(OC)ccc23)CN1C(=O)[C@@H](NC(=O)OC(C)(C)C)C(C)(C)C)C(=O)NS(=O)(=O)C1CC1 (stereo partly drawn) [Compound 329] | < 0.1 | < 0.1 |  |  |
| C=C[C@@H]1C[C@]1(NC(=O)[C@@H]1C[C@@H](Oc2ccnc3cc(Cl)ccc23)CN1C(=O)[C@@H](NC(=O)OC(C)(C)C)C(C)(C)C)C(=O)NS(=O)(=O)C1CC1 [Compound 371] | < 0.1 | < 0.1 |  |  |
| C=C[C@@H]1C[C@]1(NC(=O)[C@@H]1C[C@@H](Oc2nccc3ccccc23)CN1C(=O)[C@@H](NC(=O)OCCF)C(C)(C)C)C(=O)NS(=O)(=O)C1CC1 [Compound 126] | < 0.1 | 0.1 to 1 |  |  |
| C=CC1C[C@]1(NC(=O)[C@@H]1C[C@@H](Oc2cc(C(F)(F)F)nc3c(C(F)(F)F)cccc23)CN1C(=O)[C@@H](NC(=O)OC(C)(C)C)C(C)(C)C)C(=O)NS(=O)(=O)C1CC1 (stereo partly drawn) [Compound 181, BOCNH-P3(L-tert-BuGly)-P2[(4R)-(2,8-bistrifluoromethyl quinolin-4-oxo)-S-proline]-P1(1R,2S Vinyl Acca)-CONHSO2-Cyclopropane] | < 0.1 | 0.1 to 1 |  |  |
| C=C[C@@H]1C[C@]1(NC(=O)[C@@H]1C[C@@H](Oc2nccc3cc(O)ccc23)CN1C(=O)[C@@H](NC(=O)OC(C)(C)C)C(C)(C)C)C(=O)NS(=O)(=O)C1CC1 [Compound 280] | < 0.1 | < 0.1 |  |  |
| CC[C@@H]1C[C@]1(NC(=O)[C@@H]1C[C@@H](Oc2nccc3c(C)cccc23)CN1C(=O)[C@@H](NC(=O)OC(C)(C)C)C(C)(C)C)C(=O)NS(=O)(=O)C1CC1 [Compound 293] | < 0.1 | 0.1 to 1 |  |  |
| C=C[C@@H]1C[C@]1(NC(=O)[C@@H]1CC(Oc2nccc3cc(OC)ccc23)CN1C(=O)[C@@H](NC(=O)COC)C(C)(C)C)C(=O)NS(=O)(=O)C1CC1 (stereo partly drawn) [Compound 59] | < 0.1 | 0.1 to 1 |  |  |
| C=C[C@@H]1C[C@]1(NC(=O)[C@@H]1CC(Oc2nccc3cc(OC)ccc23)CN1C(=O)[C@@H](NC(=O)OC(C)(C)c1ccc(C(F)(F)F)cc1)C(C)(C)C)C(=O)NS(=O)(=O)C1CC1 (stereo partly drawn) [Compound 73] | < 0.1 | 0.1 to 1 |  |  |
| C=C[C@@H]1C[C@]1(NC(=O)[C@@H]1C[C@@H](Oc2nccc3cc(OC)ccc23)CN1C(=O)[C@@H](NC(=O)OC(C)(C)C)C(C)C)C(=O)NS(=O)(=O)C1CC1 [Compound 12] | < 0.1 | < 0.1 |  |  |
| C=C[C@@H]1C[C@]1(NC(=O)[C@@H]1C[C@@H](Oc2nccc3cc(OC)ccc23)CN1C(=O)[C@@H](NC(=O)OCC(C)(C)C)C(C)(C)C)C(=O)NS(=O)(=O)C1CC1 [Compound 18] | < 0.1 | < 0.1 |  |  |
| C=C[C@@H]1C[C@]1(NC(=O)[C@@H]1C[C@@H](Oc2nccc3cc(Cl)ccc23)CN1C(=O)[C@@H](NC(=O)OC(C)(C)C)C(C)(C)C)C(=O)NS(=O)(=O)C1CC1 [Compound 20] | < 0.1 | 0.1 to 1 |  |  |
| C=CC1CC1(NC(=O)[C@@H]1C[C@@H](Oc2cc(CC)nc3c(C)noc23)CN1C(=O)[C@@H](NC(=O)OC(C)(C)C)C(C)(C)C)C(=O)NS(=O)(=O)C1CC1 (stereo partly drawn) [Compound 9] | < 0.1 | 0.1 to 1 |  |  |
| C=C[C@@H]1C[C@]1(NC(=O)[C@@H]1C[C@@H](Oc2nccc3c(Cl)c(OC)ccc23)CN1C(=O)[C@@H](NC(=O)OC(C)(C)C)C(C)(C)C)C(=O)NS(=O)(=O)C1CC1 [Compound 275] | < 0.1 | < 0.1 |  |  |
| C=C[C@@H]1CC1(NC(=O)[C@@H]1CC(Oc2nccc3cc(OC)ccc23)CN1C(=O)[C@@H](NC(=O)OC1(C)CCCC1)C(C)(C)C)C(=O)NS(=O)(=O)C1CC1 (stereo partly drawn) [Compound 69] |  | < 0.1 |  | < 0.1 |
| C=CC1C[C@]1(NC(=O)[C@@H]1C[C@@H](Oc2nccc(-c3ccccc3)n2)CN1C(=O)[C@@H](NC(=O)OC)C(C)(C)C)C(=O)NS(=O)(=O)C1CC1 (stereo partly drawn) [Compound 335] | < 0.1 | 1 to 10 |  |  |
| C=C[C@@H]1C[C@]1(NC(=O)[C@@H]1C[C@@H](Oc2nccc3cc(OC)ccc23)CN1C(=O)C(NC(=O)N[C@H](C(=O)OC)C(C)C)C(C)(C)C)C(=O)NS(=O)(=O)C1CC1 (stereo partly drawn) [Compound 141] | < 0.1 | < 0.1 |  |  |
| C=C[C@@H]1C[C@]1(NC(=O)[C@@H]1C[C@@H](Oc2nccc3ccccc23)CN1C(=O)[C@@H](NC(=O)OCCOC)C(C)(C)C)C(=O)NS(=O)(=O)C1CC1 [Compound 124] | 0.1 to 1 | 1 to 10 |  |  |
| C=C[C@@H]1C[C@]1(NC(=O)[C@@H]1CC(Oc2nccc3cc(OC)ccc23)CN1C(=O)[C@@H](NC(=O)OC(C)(C)CC)C(C)(C)C)C(=O)NS(=O)(=O)C1CC1 (stereo partly drawn) [Compound 67] | < 0.1 | < 0.1 |  |  |
| C=C[C@@H]1CC1(NC(=O)[C@@H]1CC(Oc2nccc3cc(OC)ccc23)CN1C(=O)[C@@H](NC(=O)NC1CCCC1)C(C)(C)C)C(=O)NS(=O)(=O)C1CC1 (stereo partly drawn) [Compound 75] | < 0.1 | < 0.1 |  |  |
| C=C[C@@H]1C[C@]1(NC(=O)[C@@H]1C[C@@H](Oc2nc(-c3ncc(OC)o3)cc3cc(OC)ccc23)CN1C(=O)[C@@H](NC(=O)OC(C)(C)C)C(C)(C)C)C(=O)NS(=O)(=O)C1CC1 [Compound 39] | < 0.1 | < 0.1 |  |  |
| C=C[C@@H]1C[C@]1(NC(=O)[C@@H]1C[C@@H](Oc2nccc3cc(OC)ccc23)CN1C(=O)[C@@H](NC(=O)N[C@@H](C(=O)OC)C(C)C)C(C)(C)C)C(=O)NS(=O)(=O)C1CC1 [Compound 142] | < 0.1 | < 0.1 |  |  |
| C=CC1CC1(NC(=O)C1CC(Oc2nc(Br)c(OCOCC[Si](C)(C)C)c3ccccc23)CN1C(=O)C(NC(=O)OC(C)(C)C)C(C)(C)C)C(=O)NS(=O)(=O)C1CC1 (stereo not drawn) [Compound 225] | < 0.1 | 0.1 to 1 |  |  |
